Assay results from article PMC3328449, “Inhibition of Diacylglycerol–Sensitive TRPC Channels by Synthetic and Natural Steroids” (PLoS ONE, 2012).
Where “and” joins values, the source holds several entries; their conditions need not be identical. Identical values can stand only once.

Assays:
A7r5 cells = assay: Fura-2 measurement of AVP-induced Ca2+ release in A7r5 cells; assay type: cell-based; conditions: 10 µM, 5 min pre-incubation, calcium-free solution, 100 nM AVP
Description: A7r5 cells (ATCC, Rockville, USA) were maintained in DMEM (with glutaMAX I, 4.5 g/l glucose and […] sodium pyruvate), supplemented with 10% (v/v) fetal bovine serum (PAA, Pasching, Austria). Cells grown on poly-L-lysine-coated 24-mm glass coverslips were loaded in cell culture medium supplemented with 2 µM fura-2 AM (30 min, 37°C) and subsequently allowed to de-esterify in standard extracellular solution (15 min, 37°C). Changes in [Ca^2+]i were measured using a monochromator-based imaging system (T.I.L.L. Photonics, Gräfelfing, Germany) mounted on an inverted Axiovert 200 microscope (Zeiss, Göttingen, Germany). Fluorescence was excited alternating at 340 nm and 380 nm, long-pass filtered at 440 nm and captured at 2 s intervals. The 340/380 nm excitation ratio of selected cell areas was calculated with T.I.L.L. vision 4.0 software (T.I.L.L. Photonics) after correction for background fluorescence.

hTRPC6 = target: T1, hTRPC6 (Homo sapiens, UniProt Q9Y210); assay: Whole-cell patch clamp, AlF4- evoked TRPC6 currents; assay type: cell-based
T1 construct: expressed in transfected cells
T1 sequence (Q9Y210 1-931): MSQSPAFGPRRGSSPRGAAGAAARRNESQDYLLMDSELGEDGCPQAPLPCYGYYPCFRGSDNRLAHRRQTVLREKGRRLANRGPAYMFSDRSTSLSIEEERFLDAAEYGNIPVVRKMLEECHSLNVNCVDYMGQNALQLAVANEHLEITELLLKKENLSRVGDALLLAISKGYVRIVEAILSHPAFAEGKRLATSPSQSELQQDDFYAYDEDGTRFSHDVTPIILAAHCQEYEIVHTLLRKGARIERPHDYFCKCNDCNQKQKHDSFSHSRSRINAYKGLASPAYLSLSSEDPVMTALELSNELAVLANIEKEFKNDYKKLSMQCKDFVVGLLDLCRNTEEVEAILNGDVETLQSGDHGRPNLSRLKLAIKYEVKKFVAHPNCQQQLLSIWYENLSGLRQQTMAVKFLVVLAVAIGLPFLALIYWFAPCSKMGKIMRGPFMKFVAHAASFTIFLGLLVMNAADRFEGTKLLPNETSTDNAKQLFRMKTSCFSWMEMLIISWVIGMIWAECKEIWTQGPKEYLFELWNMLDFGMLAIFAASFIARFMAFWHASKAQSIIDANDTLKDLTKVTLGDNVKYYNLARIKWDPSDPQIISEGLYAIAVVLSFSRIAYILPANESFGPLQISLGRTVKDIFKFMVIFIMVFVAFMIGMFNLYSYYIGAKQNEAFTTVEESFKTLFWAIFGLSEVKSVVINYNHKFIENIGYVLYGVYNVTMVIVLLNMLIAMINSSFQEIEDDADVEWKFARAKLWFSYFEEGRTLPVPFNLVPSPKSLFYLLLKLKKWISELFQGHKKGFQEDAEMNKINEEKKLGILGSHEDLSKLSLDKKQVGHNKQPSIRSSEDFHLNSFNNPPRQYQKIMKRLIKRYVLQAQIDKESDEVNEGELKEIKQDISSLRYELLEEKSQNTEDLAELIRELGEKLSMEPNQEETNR
Description: Cells were grown at 37°C in a humidified atmosphere (5% or 7% CO2) under standard cell culture conditions. Stable human embryonic kidney (HEK) cell lines expressing recombinant mTRPC4ß (GenBank accession number AAC05178); mTRPC5 (GenBank accession number NM_009428) or hTRPC6 (GenBank accession number AF080394) under the control of a tetracycline-inducible promoter were generated using the Flp-In T-Rex (FITR) system (Invitrogen, Karlsruhe, Germany). TRPC4/5/6 HEK-FITR cells were maintained in Dulbecco's modified eagle medium (DMEM, with glutaMAX I, 4.5 g/l glucose and […] sodium pyruvate) supplemented with 10% (v/v) fetal bovine serum (Biochrom, Berlin, Germany), 1 mM glutamine, 1 mM MEM sodium pyruvate, 40 µg/ml hygromycin (50 µg/ml for mTRPC5 HEK-FITR cells), and 15 µg/ml blasticidine HCl. Channel expression was induced by supplementing the growth medium for 18–24 h with 1 µg/ml doxycycline.
The whole-cell patch clamp technique was employed to measure ion currents from single cells. […]
Cells grown on poly-L-lysine-coated coverslips were continuously superfused with extracellular solution and substances were applied using an ALA BPS-8 perfusion system (ALA Scientific Instruments, Westbury, USA). […] Cells were held at −70 mV, and current-voltage (I–V) relationships were routinely measured every 2 or 3 s by applying voltage ramps (180 ms) from −100 mV to +80 mV. […]
For statistical analysis, analysis of variance was performed with Origin 6.0 software (Microcal Software Inc., Northampton, USA). […] IC50 were calculated with SigmaPlot (Systat software, San Jose, USA) using the sigmoidal Hill-model: f = 100 (C^n/(IC50 ^n+C^n)); where f is the inhibition, C is the applied drug concentration and n is the Hill coefficient. The half maximal effective concentration (EC50) of norgestimate-induced vasorelaxation was calculated analogously with R = y0+y1C^n/(EC50 ^n+C^n); where R is relaxation, yo and y1 are constants, C is the applied drug concentration and n is the Hill coefficient. Averaged data is expressed as means ± SEM.

SMILES: C#C[C@]1(OC(C)=O)CC[C@H]2[C@@H]3CCC4=CC(=NO)CC[C@@H]4[C@H]3CC[C@@]21CC (mixture of isomers) [norgestimate]
- Sensitivity of AVP-induced Ca2+ release (A7r5 cells): not sensitive
- Inhibition of TRPC6 currents (hTRPC6; 10 µM, whole-cell patch clamp, AlF4- infusion): almost completely inhibited
- Hill slope, TRPC6 current inhibition (hTRPC6; fit to dose-response equation): 1.19
- IC50 (hTRPC6; whole-cell patch clamp, AlF4- infusion, read-out: IC50, TRPC6 current inhibition): 3.06 µM and ~3 µM
